Results reported in patent US10189863B2, “5,6-dihydro-4H-benzo[b]thieno-[2,3-d]azepine derivatives” (PULMOCIDE LIMITED, priority 2014, dated 2019).

Columns and labels:
[1] = Cell viability: resazurin assay; format: cell-based, human; conditions: human, HEp2 cells
Experimental: Cell Viability: Resazurin Assay
HEp2 cells were seeded in 384-well plates (10^3/well/50 μL; BD Falcon Ref 353962) in FBS DMEM (5%, containing 2 mM L-glutamine and 1 mM sodium pyruvate) one day before experimentation. Serum-free DMEM (50 μL) was added to test wells while for control wells the media was removed and sterile water (100 μL) was added. Test compounds (0.5 μL DMSO solution) were added to give a final DMSO concentration of 0.5%. Hep2 cells were incubated with each test compound for 5 days (37° C./5% CO2 in 5% FBS) and then resazurin stock solution (5 μL; 0.03%) was added to each well and the plate incubated for a further 6 hr (37° C./5% CO2). The fluorescence of each well at 545 nm (excitation) and 590 nm (emission) was determined using a multi-scanner (Clariostar: BMG Labtech). The percentage loss of cell viability was calculated for each well relative to vehicle (0.5% DMSO) treatment.
Any apparent increase in cell viability associated with test compound treatment relative to vehicle is consequently tabulated as a negative percentage. Where appropriate, a CC50 value was calculated from the concentration-response curve generated from the concentration-response curve for each test compound.

RSV B Washington strain = experiment: Assessment of RSV induced CPE in HEp2 cells (RSV B Washington strain); format: cell-based; conditions: human respiratory syncytial virus, HEp2 cells; for IC50: HEp-2, 144 h, 1 MOI, 6 days, read-out: RSV B CPE IC50; for inhibition at 1 µg/mL: Inhibition (%) at 1 μg/mL, read-out: RSV B CPE % Inhibition
Experimental: (§1) Assessment of RSV Induced CPE in HEp2 Cells
(§2) HEp2 cells were seeded (10^3/well/50 μL) in 384-well plates (Catalogue number 353962, BD Falcon, Oxford, UK) in […] containing 2 mM L-glutamine and 1 mM sodium pyruvate one day before infection. RSV A2 strain (#0709161v, NCPV, Public Health England, Wiltshire) or RSV B Washington strain (VR-1580, ATCC, Manassas, Va. 20108) virus solutions were prepared in serum free-DMEM with 2 mM L-glutamine and 1 mM sodium pyruvate, and then added (50 μL/well) to achieve a final virus concentration of 1 MOI. Simultaneously test compounds (0.5 μL DMSO solution) were added to 100 μL of HEp2 cell culture with virus solution to provide a final DMSO solution of 0.5%. Plates were incubated (37° C./5% CO2) for 5 days for studies using RSV A2 strain or 6 days for those using RSV B strain, and then resazurin sodium salt (5 μL of 0.03% solution; Sigma-Aldrich, Dorset, UK) was added to each well and the plate incubated for a further 6 hr (37° C./5% CO2). The fluorescence of each well [545 nm (excitation)/590 nm (emission)] was determined using a multi-scanner (Clariostar: BMG, Buckinghamshire, UK). The percentage inhibition for each well was calculated and the IC50, IC75 and IC90 values were calculated from the concentration-response curve generated for each test compound.

RSV A2 strain = experiment: Assessment of RSV induced CPE in HEp2 cells (RSV A2 strain); format: cell-based; conditions: human respiratory syncytial virus, HEp2 cells; for IC50: HEp-2, 120 h, 1 MOI, 5 days, read-out: RSV A2 CPE IC50; for inhibition at 0.01 µg/mL / inhibition at 0.1 µg/mL: HEp-2; for inhibition at 0.01 µg/mL: Inhibition (%) at 0.01 μg/mL; for inhibition at 0.1 µg/mL: Inhibition (%) at 0.1 μg/mL, read-out: RSV A2 CPE % Inhibition
Experimental: as §1, §2

Compound | IC50 (RSV B Washington strain) | IC50 (RSV A2 strain) | CC50 at 5 days [1] | inhibition at 1 µg/mL (RSV B Washington strain; HEp-2) | inhibition at 0.01 µg/mL (RSV A2 strain) | inhibition at 0.1 µg/mL (RSV A2 strain) | inhibition at 0.1 µg/mL (RSV B Washington strain; HEp-2, Inhibition (%) at 0.1 μg/mL)
C#Cc1cnc(N2CC3(CCOCC3)C2)c(C(=O)Nc2ccc(C(=O)N3CCc4cc(C(=O)Nc5c(F)cccc5Cl)sc4-c4ccccc43)cc2)c1 [Example 66, N-(2-chloro-6-fluorophenyl)-6-(4-(5-ethynyl-2-(7-oxa-2-azaspiro[3.5]nonan-2-yl)nicotinamido)benzoyl)-5,6-dihydro-4H-benzo[b]thieno[2,3-d]azepine-2-carboxamide] | 4.8 nM | 0.15 nM | > 13400 nM | 95% | 95% |  | 
O=C(Nc1c(F)cccc1Cl)c1cc2c(s1)-c1ccccc1N(C(=O)c1ccc(NC(=O)c3cc4c(nc3N3CC5(CCOCC5)C3)CCC4)cc1F)CC2 [Example 80, 6-(4-(2-(7-oxa-2-azaspiro[3.5]nonan-2-yl)-6,7-dihydro-5H-cyclopenta[b]pyridine-3-carboxamido)-2-fluorobenzoyl)-N-(2-chloro-6-fluorophenyl)-5,6-dihydro-4H-benzo[b]thieno [2,3-d]azepine-2-carboxamide] | 1.6 nM | 2 nM | > 12800 nM | 93% | 91% |  | 
Cc1cnc(N2CC3(CCOCC3)C2)c(C(=O)Nc2ccc(C(=O)N3CCc4cc(C(=O)Nc5c(C)cccc5Cl)sc4-c4ccccc43)cc2)c1 [Example 56, N-(2-chloro-6-methylphenyl)-6-(4-(5-methyl-2-(7-oxa-2-azaspiro[3.5]nonan-2-yl)nicotinamido)benzoyl)-5,6-dihydro-4H-benzo[b]thieno[2,3-d]azepine-2-carboxamide] | 4.1 nM | 0.14 nM | > 13700 nM | 89% |  | 94% | 
Cc1cnc(N2CC3(CCOCC3)C2)c(C(=O)Nc2ccc(C(=O)N3CCc4cc(C(=O)Nc5c(F)cc(F)cc5F)sc4-c4ccccc43)c(F)c2)c1 [Example 59, 6-(2-fluoro-4-(5-methyl-2-(7-oxa-2-azaspiro[3.5]nonan-2-yl)nicotinamido)benzoyl)-N-(2,4,6-trifluorophenyl)-5,6-di-hydro-4H-benzo[b]thieno[2,3-d]azepine-2-carboxamide] | 13.8 nM | 0.23 nM | > 13200 nM | 93% |  | 100% | 
O=C(Nc1c(F)cccc1F)c1cc2c(s1)-c1ccccc1N(C(=O)c1ccc(NC(=O)c3cc4ccccc4nc3N3CC4(CCOCC4)C3)cc1)CC2 [Example 86, 6-(4-(2-(7-oxa-2-azaspiro[3.5]nonan-2-yl)quinoline-3-carboxamido)benzoyl)-N-(2,6-difluorophenyl)-5,6-dihydro-4H-benzo[b]thieno[2,3-d]azepine-2-carboxamide] | 23 nM | 0.17 nM | > 13200 nM |  | 85% |  | 100%
Cc1cnc(N2CCC3(CC2)COC3)c(C(=O)Nc2ccc(C(=O)N3CCc4cc(C(=O)Nc5c(F)cccc5F)sc4-c4ccccc43)cc2)c1 [Example 92, N-(2,6-difluorophenyl)-6-(4-(5-methyl-2-(2-oxa-7-aza-spiro[3.5]nonan-7-yl)nicotinamido)benzoyl)-5,6-dihydro-4H-benzo[b]thieno[2,3-d]azepine-2-carboxamide] | 60.8 nM | 0.17 nM | > 13900 nM | 100% | 93% |  | 

Further compounds by falling IC50 (RSV B Washington strain), results first:

IC50 (RSV B Washington strain) | IC50 (RSV A2 strain) | Compound | CC50 at 5 days [1] | inhibition at 1 µg/mL (RSV B Washington strain; HEp-2) | inhibition at 0.01 µg/mL (RSV A2 strain) | inhibition at 0.1 µg/mL (RSV A2 strain) | inhibition at 0.1 µg/mL (RSV B Washington strain; HEp-2, Inhibition (%) at 0.1 μg/mL)
204 nM | 0.66 nM | CCc1ccccc1NC(=O)c1cc2c(s1)-c1ccccc1N(C(=O)c1ccc(NC(=O)c3cccnc3N3CC4(CCOCC4)C3)cc1)CC2 [Example 17, 6-(4-(2-(7-oxa-2-azaspiro[3.5]nonan-2-yl)nicotinamido)benzoyl)-N-(2-ethylphenyl)-5,6-dihydro-4H-benzo[b]thieno [2,3-d]azepine-2-carboxamide] | > 14300 nM | 77% |  | 100% | 
38.5 nM | 0.11 nM | Cc1cnc(N2CC3(CCOCC3)C2)c(C(=O)Nc2ccc(C(=O)N3CCc4cc(C(=O)Nc5ccccc5Cl)sc4-c4ccccc43)cc2)c1 [Example 34, N-(2-chlorophenyl)-6-(4-(5-methyl-2-(7-oxa-2-azaspiro [3.5]nonan-2-yl)nicotinamido)benzoyl)-5,6-dihydro-4H-benzo[b]thieno[2,3-d]azepine-2-carboxamide] | > 13900 nM | 86% |  | 100% | 
38.2 nM | < 0.015 nM | Cc1cnc(N2CC3(CCOCC3)C2)c(C(=O)Nc2ccc(C(=O)N3CCc4cc(C(=O)Nc5ccccc5)sc4-c4ccccc43)cc2)c1 [Example 32, 6-(4-(5-methyl-2-(7-oxa-2-azaspiro[3.5]nonan-2-yl)nicotinamido)benzoyl)-N-phenyl-5,6-dihydro-4H-benzo[b] thieno[2,3-d]azepine-2-carboxamide] | > 14600 nM | 81% |  | 100% | 
8.6 nM | 0.32 nM | Cc1cnc(N2CC3(CCOCC3)C2)c(C(=O)Nc2ccc(C(=O)N3CCc4cc(C(=O)Nc5c(C)cccc5CO)sc4-c4ccccc43)cc2)c1 [Example 58, N-(2-(hydroxymethyl)-6-methylphenyl)-6-(4-(5-methyl-2-(7-oxa-2-azaspiro[3.5]nonan-2-yl)nicotinamido)benzoyl)-5,6-dihydro-4H-benzo[b]thieno[2,3-d]azepine-2-carboxamide] | > 13700 nM | 100% | 100% |  | 
6.2 nM | 0.15 nM | O=C(Nc1c(F)cccc1Cl)c1cc2c(s1)-c1ccccc1N(C(=O)c1ccc(NC(=O)c3cc4c(nc3N3CC5(CCOCC5)C3)CCOC4)cc1)CC2 [Example 83, N-(4-(2-((2-chloro-6-fluorophenyl)carbamoyl)-5,6-di-hydro-4H-benzo[b]thieno[2,3-d]azepine-6-carbonyl)phenyl)-2-(7-oxa-2-azaspiro[3.5]nonan-2-yl)-7,8-dihydro-5H-pyrano [4,3-b]pyridine-3-carboxamide] | > 12800 nM | 95% | 100% |  | 
3.3 nM | 0.067 nM | Cc1cnc(N2CC3(CCOCC3)C2)c(C(=O)Nc2ccc(C(=O)N3CCc4cc(C(=O)Nc5c(O)cccc5F)sc4-c4ccccc43)cc2)c1 [Example 52, N-(2-fluoro-6-hydroxyphenyl)-6-(4-(5-methyl-2-(7-oxa-2-azaspiro[3.5]nonan-2-yl)nicotinamido)benzoyl)-5,6-dihydro-4H-benzo[b]thieno[2,3-d]azepine-2-carboxamide] | > 13900 nM | 100% |  | 96% | 
0.96 nM | 0.45 nM | O=C(Nc1c(F)cccc1F)c1cc2c(s1)-c1ccccc1N(C(=O)c1ccc(NC(=O)c3cc4sccc4nc3N3CC4(CCOCC4)C3)cc1)CC2 [Example 13, 6-(4-(5-(7-Oxa-2-azaspiro[3.5]nonan-2-yl)thieno[3,2-b]pyridine-6-carboxamido)benzoyl)-N-(2,6-difluorophenyl)-5,6-dihydro-4H-benzo[b]thieno[2,3-d]azepine-2-carboxamide] | > 13100 nM | 100% | 100% |  | 
0.9 nM | 0.13 nM | Cc1cnc(N2CC3(CCOCC3)C2)c(C(=O)Nc2ccc(C(=O)N3CCc4cc(C(=O)Nc5c(C)cccc5C#N)sc4-c4ccccc43)cc2)c1 [Example 62, N-(2-cyano-6-methylphenyl)-6-(4-(5-methyl-2-(7-oxa-2-azaspiro[3.5]nonan-2-yl)nicotinamido)benzoyl)-5,6-dihydro-4H-benzo[b]thieno[2,3-d]azepine-2-carboxamide] | > 13800 nM | 100% | 89% |  | 
